{"source": "patent US7229826B2", "about": "“Process for ex vivo formation of mammalian bone and uses thereof” (The Regents of the University of Michigan, priority 1999, dated 2007)", "assay_type_in_all_cases": "cell-based", "key": {"[1]": {"test_system": "murine LTBMC (unfractionated bone marrow)", "assay": "Murine long-term bone marrow culture (LTBMC) osteogenesis, von Kossa / Masson positive foci and microspicules", "source_text": "The inventors therefore established murine LTBMC and probed their capacity to express markers of osteogenesis. […] Additionally, they have developed a smaller culture volume system (dropping from 100 -mm tissue culture dishes to 35 mm ones) to allow better utilization of human osteoblasts. Using this modification on murine cells (which respond less robustly to TGF-β as a solitary cytokine), the inventors examined the role of IGF in modulating this process.\nEndothelial cells are important sources of cytokines for both hematopoietic and osteogenesis cells. An important regulator of endothelial cells, VEGF, is known to affect both endothelial cells, and bone cell development (although it is not clear if the latter is a direct effect)."}, "[2]": {"test_system": "human osteogenic cells (MG63, HBPC, primary osteoblasts)", "assay": "TGF-β1-induced bone cell spheroid formation in serum-free culture", "conditions": "200 pM TGF-β1, serum-free, immediately following trypsinization", "procedure": "Culture of Osteogenic Cells and Cell Lines. Osteogenic cell lines such as human osteosarcoma cells (MG63) were cultured in RPMI 1640 (Gibco, Grand Island. N.Y.) containing 2 mM L-Glutamine, sodium pyruvate and 10% Fetal Calf Serun (FCS) (Hyclone Labs Inc., Logan, Utah). For bone cell spheroid formation, cells were grown to confluency, trypsinized, washed two times in RPMI, and immediately cultured in serum-free media containing 1% ITS+ (Collaborative Research Inc.) and 200 pM TGF-β1 (Collaborative). Unless otherwise noted, cells are plated at a density of about 10^3 to 10^6 cells/cm^2 in tissue culture dishes. Control cells were allowed to adhere to plastic for 3–4 hours in serum containing medium following trypsinization. This adherent cell layer was then washed twice with serum-free medium and cultured as above with or without TGF-β1.\nBone Cell-Spheroid Formation. In order to induce three-dimensional cell development (i.e., bone cell spheroids), cells were trypsinized as routinely performed for passage, the trypsin inactivated by serum addition, the cells washed three times, and immediately cultures in RPMI/ITS^+ (see above) containing 200 pM TGF-β1, Control cells were allowed to adhere to plastic for 3–4 hours in serum containing medium following trypsinization. This adherent cell layer was then washed twice with serum-free medium and cultured as above with or without TGF-β1."}, "[3]": {"test_system": "primary osteoblasts isolated from human bone", "assay": "Collagen synthesis by 3H-proline incorporation, delayed reduction electrophoresis", "conditions": "densitometry", "procedure": "Collagen Synthesis. At the times indicated, bone cell-spheroids were washed with prolene-free DMEM containing 1% ITS, and incubated for 12 hours in the presence of ITS^+ and 100 μCi/ml (^3H) Proline (Amersham). Cells and medium were harvested, and cell lysates were made. Protein content was estimated by the BCA method (Smith, 1985), using a kit from Pierce (Rockford, Ill.). The cell lysates were lyophilized and extracted overnight at 4° C. with 0.5M acetic acid containing 100 μg/ml pepsin (Sigma Chemical Co., St. Louis, Mo.). Samples were dried, dissolved in non-reducing SDS-gel buffer and analyzed on a 5% SDS-gel. The αl(1) and αl(111) components were resolved by delayed reduction electrophoresis (Sykes, 1976). The gels were treated with Amplify (Amersham, England), and the radiolabeled collagen visualized by autoradiography. The percentage of Type I collagen was determined using the following formula (Franceschi, 1988)."}, "[4]": {"test_system": "human osteogenic cells (MG63, HBPC, primary osteoblasts)", "assay": "Western analysis of bone protein expression in spheroids", "conditions": "each osteogenic cell type; versus serum-free cells in the absence of TGF-β1", "procedure": "Western Analysis. The procedure used was essentially that of Towbin (1979). Samples were run on a 10% SDS-PAGE. The electrophoretically resolved proteins were transferred to nitrocellulose (Schleicher & Schuell; Keene, N.H.) and the nonspecific binding sites blocked using 5% Skim milk in TBST (10 mM Tris, 0.15M NaCl, 0.05% Tween 20, pH 7.5). The nitrocellulose membrane was incubated with primary antibodies: anti-Osteonectin (ON), anti-alkaline phosphatase, (both generous gifts of Dr. Kenneth Mann, University of Vermont) or anti-Type I collagen (Collaborative); each at 10 μg/ml in TBST) for 1 hour at room temperature, washed with TBST and treated with the secondary antibody (anti-mouse IgG-HRP conjugated; Amersham) at a 1:1000 dilution in the same buffer. The HRP/anitbody-labeled proteins were visualized by enhanced chemilluminescence (Pierce)."}, "[5]": {"test_system": "human osteogenic cells (MG63, HBPC, primary osteoblasts)", "assay": "Inhibition of cell condensation (bone cell spheroid and microspicule formation)", "conditions": "EGTA 0.5 mM; puromycin 5 μM; spheroid-forming conditions with TGF-β1", "procedure": "Inhibition of Cell Condensation. Cells were cultured in serum-free media under conditions that establish bone cell spheroids (as described above) in the presence of neutralizing antibodies to α2, α3, and/or β1 integrins, at 10 μg/ml. Isotype-specific inappropriate antibodies served as negative controls. Antibodies were added every second day over a seven-day culture period. EGTA (0.5 mM) was also used inhibition of cell aggregation, as was puromycin (5 μM)."}}, "note": "Entries after “also recorded” stand apart in the source; their conditions may differ.", "data": [{"compound": "VEGF", "values": [{"measurement": "increase in number of von Kossa cellular foci", "setting": "[1]; VEGF 10 ng/mL", "value": 2.5, "unit": "fold"}, {"measurement": "increase in number of collagen-positive and von Kossa-positive developmental foci per culture", "setting": "[1]; VEGF 10 ng/mL added to LTBMC", "value": "75–80%"}, {"measurement": "increase in number of microspicules per culture", "setting": "[1]; VEGF 10 ng/mL, over the first three weeks of culture", "value": "~5", "unit": "fold"}]}, {"compound": "TGF-β1: multifunctional cytokine of the TGF-β family, osteogenic growth factor used at 200 pM (human) or 25 pM (murine)", "values": [{"measurement": "time to formation of three-dimensional spherical cellular condensates (cell spheroids)", "setting": "[2]", "value": "24 to 48", "unit": "h"}, {"measurement": "increase in collagen synthesis on TGF-β1-dependent spheroid formation", "setting": "[3]", "value": "two to three fold increase"}, {"measurement": "expression of osteonectin and alkaline phosphatase", "setting": "[4]", "value": "markedly increases"}, {"measurement": "capacity to drive murine osteogenesis (individually)", "setting": "[1]; TGF-b 25 pM, IGF 15 pM, each alone", "value": "little capacity"}]}, {"compound": "COc1ccc(C[C@H](N)C(=O)N[C@H]2[C@@H](O)[C@H](n3cnc4c(N(C)C)ncnc43)O[C@@H]2CO)cc1", "note": "[puromycin]", "values": [{"measurement": "spheroid formation (effect in words)", "setting": "[5]", "value": "completely blocked; also recorded: completely inhibited"}]}, {"compound": "O=C(O)CN(CCOCCOCCN(CC(=O)O)CC(=O)O)CC(=O)O", "note": "[EGTA]", "values": [{"measurement": "spheroid formation (effect in words)", "setting": "[5]", "value": "completely inhibited"}]}]}
